From patent publication US20230013669A1, “Antibacterial Treatment Using a Cannabinoid and an Active Agent” (priority 2019, published 2023)
“And” between values parts separate entries of the source, which are not always exact repeats. Equal values may be shown once.

Test system: Klebsiella pneumoniae ATCC 13883 (GN_003 / GN_004)
Experiment: Synergy of cannabidiol with cell-wall disrupting agent (CBD MIC in combination, FICI)
Format: cell-based
Protocol: The compounds were stored short term at 4° C.
Analysis was performed using Microsoft Excel.

[1] = CBD with Colistin, Klebsiella pneumoniae ATCC 700603
[2] = CBD with MCC_6442, Klebsiella pneumoniae ATCC 700603, listed as CBD

## C=C(C)C1CCC(C)=CC1c1c(O)cc(CCCCC)cc1O (stereo not drawn) [Cannabidiol, 2-[3-methyl-6-(1-methylethenyl)-2-cyclohexen-1-yl]-5-pentyl-1,3-benzenediol]
CBD with Cefotetan, Klebsiella pneumoniae ATCC 700603, listed as CBD
  FICI range (MIC table): 1-1.5 and 0.5-1.25
CBD with Ceftazidime at 4 μg/mL, Klebsiella pneumoniae ATCC 700603, listed as CBD
  FICI: 1
CBD with Ceftazidime at 8 μg/mL, Klebsiella pneumoniae ATCC 700603, listed as CBD
  FICI: 1
CBD with Ceftazidime at 16 μg/mL, Klebsiella pneumoniae ATCC 700603, listed as CBD
  FICI: 1.001 and 1
CBD with Ceftazidime at 32 μg/mL, Klebsiella pneumoniae ATCC 700603, listed as CBD
  FICI: 1.002 and 1.001
CBD with Ceftazidime at 64 μg/mL, Klebsiella pneumoniae ATCC 700603, listed as CBD
  FICI: 0.00391 and 0.001957
CBD with Ceftazidime at 128 μg/mL, Klebsiella pneumoniae ATCC 700603, listed as CBD
  FICI: 0.007816 and 0.00391
CBD with Ceftazidime, Klebsiella pneumoniae ATCC 700603
  FICI range (MIC table): 0-1
CBD with Cefuroxime at 1 μg/mL, Klebsiella pneumoniae ATCC 700603
  FICI: 1.016
CBD with Cefuroxime at 2 μg/mL, Klebsiella pneumoniae ATCC 700603
  FICI: 1.031
CBD with Cefuroxime at 4 μg/mL, Klebsiella pneumoniae ATCC 700603
  FICI: 1.0625
CBD with Cefuroxime at 8 μg/mL, Klebsiella pneumoniae ATCC 700603
  FICI: 1.125
CBD with Cefuroxime at 16 μg/mL, Klebsiella pneumoniae ATCC 700603
  FICI: 1.25
CBD with Cefuroxime at 32 μg/mL, Klebsiella pneumoniae ATCC 700603
  FICI: 0.5
CBD with Colistin at 0.031 μg/mL, Klebsiella pneumoniae ATCC 700603
  FICI: 1.03
CBD with Colistin at 0.062 μg/mL, Klebsiella pneumoniae ATCC 700603
  FICI: 1.06
CBD with Colistin at 0.25 μg/mL, Klebsiella pneumoniae ATCC 700603
  FICI: 1.25
CBD with Colistin at 0.5 μg/mL, Klebsiella pneumoniae ATCC 700603
  FICI: 0.5
CBD with Colistin at 1 μg/mL, Klebsiella pneumoniae ATCC 700603
  FICI: 1
[1]
  FICI range (MIC table): 0.5-1.25
  FICI range (Synergy table): 0.5-1.25
[2]
  FICI range (MIC table): 0.25-1.13 and 0.13-1.06
  FICI range (Synergy table): 0.25-0.5 and 0.13-0.25
CBD with MCC_6442 at 0.25 μg/mL, Klebsiella pneumoniae ATCC 700603
  FICI: 1.031
CBD with MCC_6442 at 0.25 μg/mL, Klebsiella pneumoniae ATCC 700603, listed as CBD
  FICI: 1.016
CBD with MCC_6442 at 0.5 μg/mL, Klebsiella pneumoniae ATCC 700603, listed as CBD
  FICI: 1.0625 and 1.031
CBD with MCC_6442 at 1 μg/mL, Klebsiella pneumoniae ATCC 700603, listed as CBD
  FICI: 1.125 and 1.0625
CBD with MCC_6442 at 2 μg/mL, Klebsiella pneumoniae ATCC 700603, listed as CBD
  FICI: 0.2539 and 0.1289
CBD with MCC_6442 at 4 μg/mL, Klebsiella pneumoniae ATCC 700603, listed as CBD
  FICI: 0.501 and 0.251
CBD with Ticarcillin at 2 μg/mL, Klebsiella pneumoniae ATCC 700603
  FICI: 1.002
CBD with Ticarcillin at 4 μg/mL, Klebsiella pneumoniae ATCC 700603
  FICI: 1.004
CBD with Ticarcillin at 16 μg/mL, Klebsiella pneumoniae ATCC 700603
  FICI: 1.016
CBD with Ticarcillin at 32 μg/mL, Klebsiella pneumoniae ATCC 700603
  FICI: 1.031
CBD with Ticarcillin at 64 μg/mL, Klebsiella pneumoniae ATCC 700603
  FICI: 1.0625
CBD with Ticarcillin, Klebsiella pneumoniae ATCC 700603
  FICI range (MIC table): 1-1.06
Cefotetan at 0.015 μg/mL, Klebsiella pneumoniae ATCC 700603
  CBD MIC with Cefotetan: >256 µg/mL
Cefotetan at 0.031 μg/mL, Klebsiella pneumoniae ATCC 700603
  CBD MIC with Cefotetan: >256 µg/mL
Cefotetan at 0.062 μg/mL, Klebsiella pneumoniae ATCC 700603
  CBD MIC with Cefotetan: >256 µg/mL
Cefotetan at 0.25 μg/mL, Klebsiella pneumoniae ATCC 700603
  CBD MIC with Cefotetan: >256 µg/mL
Cefotetan at 0.5 μg/mL, Klebsiella pneumoniae ATCC 700603
  CBD MIC with Cefotetan: 0.001 µg/mL
Ceftazidime at 0.015 μg/mL as headed in Table 64, Klebsiella pneumoniae ATCC 700603
  CBD MIC with Ceftazidime: >256 µg/mL
Ceftazidime at 0.031 μg/mL as headed in Table 64, Klebsiella pneumoniae ATCC 700603
  CBD MIC with Ceftazidime: >256 µg/mL
Ceftazidime at 0.062 μg/mL as headed in Table 64, Klebsiella pneumoniae ATCC 700603
  CBD MIC with Ceftazidime: >256 µg/mL
Ceftazidime at 0.25 μg/mL as headed in Table 64, Klebsiella pneumoniae ATCC 700603
  CBD MIC with Ceftazidime: 0.001 µg/mL
Ceftazidime at 0.5 μg/mL as headed in Table 64, Klebsiella pneumoniae ATCC 700603
  CBD MIC with Ceftazidime: 0.001 µg/mL
Ceftazidime at 4 μg/mL (Table 66), Klebsiella pneumoniae ATCC 700603
  CBD MIC with Ceftazidime: >32 µg/mL
Ceftazidime at 8 μg/mL (Table 66), Klebsiella pneumoniae ATCC 700603
  CBD MIC with Ceftazidime: >32 µg/mL
Ceftazidime at 16 μg/mL (Table 66), Klebsiella pneumoniae ATCC 700603
  CBD MIC with Ceftazidime: >32 µg/mL
Ceftazidime at 32 μg/mL (Table 66), Klebsiella pneumoniae ATCC 700603
  CBD MIC with Ceftazidime: >32 µg/mL
Ceftazidime at 64 μg/mL (Table 66), Klebsiella pneumoniae ATCC 700603
  CBD MIC with Ceftazidime: 0.001 µg/mL
Ceftazidime at 128 μg/mL (Table 66), Klebsiella pneumoniae ATCC 700603
  CBD MIC with Ceftazidime: 0.001 µg/mL
Cefuroxime at 32 μg/mL, Klebsiella pneumoniae ATCC 700603
  CBD MIC with Cefuroxime: 1 ng/mL
Colistin at 0.5 μg/mL, Klebsiella pneumoniae ATCC 700603
  CBD MIC with Colistin: 1 ng/mL
Colistin at 1 μg/mL, Klebsiella pneumoniae ATCC 700603
  CBD MIC with Colistin: 1 ng/mL
Example 4
  activity of cannabidiol combined with octapeptin MCC_006442: effective
Example 7
  activity of cannabidiol in combination with octapeptin MCC_006442: effective
Example 12
  activity of cannabidiol combined with cefuroxime: effective
Example 14
  activity of cannabidiol combined with colistin: effective
Example 15
  activity of cannabidiol combined with octapeptin MCC_006442: effective
Example 16
  activity of cannabidiol combined with ceftazidime: effective
Example 17
  activity of cannabidiol combined with cefotetan: effective
Example 18
  activity of cannabidiol combined with aztreonam: effective
Example 21
  activity of cannabidiol combined with octapeptin C4: effective
